Results: patent publication US4539202A, “Derivatives of clavulanic acid, a process for their preparation and their use” (Beecham Group p.l.c., priority 1983, dated 1985)
In brackets after ≈: the same amount, converted by molar mass. Where two headings read alike, the source gives them in different places.

What was measured:
E coli JT39 [1] = test: Synergistic activity with amoxycillin, standard MIC test; format: cell-based, Escherichia coli; settings: amoxycillin alone
Source text: (§1) Synergistic Activity with Amoxycillin
(§2) Using conventional methods the following results were obtained in a standard MIC test: […]

St aureus Russell [2] = test: as above; format: cell-based, Staphylococcus aureus; settings: amoxycillin alone
Source text: as §1, §2

K aerogenes E70 [3] = test: as above; format: cell-based, Klebsiella aerogenes; settings: amoxycillin alone
Source text: as §1, §2

E coli JT39 [4] = test: Antibacterial activity, standard MIC test; format: cell-based, Escherichia coli; settings: compound alone
Source text: as §2

St aureus Russell [5] = test: Antibacterial activity, standard MIC test; format: cell-based; settings: Staphylococcus aureus, compound alone
Source text: as §2

K aerogenes E70 [6] = test: Antibacterial activity, standard MIC test; format: cell-based; settings: Klebsiella aerogenes, compound alone
Source text: as §2

[7] = Escherichia coli, read-out: MIC

MIC amoxycillin (E coli JT39 [1]) [µg/mL] | MIC amoxycillin (St aureus Russell [2]) [µg/mL] | MIC amoxycillin (K aerogenes E70 [3]) [µg/mL] | MIC (E coli JT39 [4]; [7]) [µg/mL] | MIC (St aureus Russell [5]) [µg/mL] | MIC (K aerogenes E70 [6]) [µg/mL] | Structure (SMILES) | MIC (E coli JT39 [4]) [µg/mL]
2000 | 500 | 500 | – | – | – | CC1(C)S[C@@H]2[C@H](NC(=O)[C@H](N)c3ccc(O)cc3)C(=O)N2[C@H]1C(=O)O [Amoxycillin] | –
– | – | – | 31 (≈ 99.3 µM) | 31 (≈ 99.3 µM) | 250 (≈ 800 µM) | O=C(O)CCCCCNC/C=C1\O[C@@H]2CC(=O)N2[C@H]1C(=O)O [9(b), 9-N-(5'-Carboxypentyl)aminodeoxyclavulanic acid] | –
– | – | – | 31 (≈ 109 µM) | 62.5 (≈ 220 µM) | 250 (≈ 879 µM) | O=C(O)CCCNC/C=C1\O[C@@H]2CC(=O)N2[C@H]1C(=O)O [10(b), 9-N-(3'-Carboxypropyl)aminodeoxyclavulanic acid] | –
– | – | – | 31 (≈ 91.6 µM) | 16 (≈ 47.3 µM) | 250 (≈ 739 µM) | O=C(O)[C@H]1/C(=C/CNC[C@H]2CC[C@H](C(=O)O)CC2)O[C@@H]2CC(=O)N21 [12(d), 9-N-(trans-4'-Carboxycyclohexylmethyl)aminodeoxyclavulanic acid] | –
– | – | – | – | 8 (≈ 20.9 µM) | > 500 | O=C(O)CCCCCCCCCCNC/C=C1\O[C@@H]2CC(=O)N2[C@H]1C(=O)O [11(b), 9-N-(10'-Carboxydecyl)aminodeoxyclavulanic acid] | –

Second part, the molecule before the results:

Structure (SMILES) | MIC amoxycillin (E coli JT39 [1]) [µg/mL] | MIC amoxycillin (St aureus Russell [2]) [µg/mL] | MIC amoxycillin (K aerogenes E70 [3]) [µg/mL] | MIC (E coli JT39 [4]; [7]) [µg/mL] | MIC (St aureus Russell [5]) [µg/mL] | MIC (K aerogenes E70 [6]) [µg/mL] | MIC (E coli JT39 [4]) [µg/mL]
O=C(O)CCNC/C=C1\O[C@@H]2CC(=O)N2[C@H]1C(=O)O [1(b), 9-N-(2'-Carboxyethyl)aminodeoxyclavulanic acid] | – | – | – | 15 (≈ 55.5 µM) | 31 (≈ 115 µM) | > 500 | –
COC(=O)CCNC/C=C1\O[C@@H]2CC(=O)N2[C@H]1C(=O)O [6(b), 9-N-(2'-Methoxycarbonylethyl)aminodeoxyclavulanic acid] | – | – | – | 31 (≈ 109 µM) | 8 (≈ 28.1 µM) | 250 (≈ 879 µM) | –
N[C@@H](CCCCNC/C=C1\O[C@@H]2CC(=O)N2[C@H]1C(=O)O)C(=O)O [14(d)] | – | – | – | – | 31 (≈ 94.7 µM) | > 500 | 125 (≈ 382 µM)
O=C(O)c1ccc(CNC/C=C2\O[C@@H]3CC(=O)N3[C@H]2C(=O)O)cc1 [4(c), 9-N-(4'-Carboxybenzyl)aminodeoxyclavulanic acid] | – | – | – | 31 (≈ 93.3 µM) | 4 (≈ 12 µM) | 250 (≈ 752 µM) | –
O=C(O)CCCCNC/C=C1\O[C@@H]2CC(=O)N2[C@H]1C(=O)O [3(c), 9-N-(4'-Carboxybutyl)aminodeoxyclavulanic acid] | – | – | – | 62.5 (≈ 210 µM) | 31 (≈ 104 µM) | 250 (≈ 838 µM) | –
